Results as given in patent US7173035B2, “Arylsulfonamide compounds” (Biovitrum AB, priority 2001, dated 2007).
Where a name gives a salt, the structure may show the parent alone. Blank lines part the entries; values can stand above or below the compound they belong to.

Key:
[1] = system: Obese (ob/ob) mouse; assay: In vivo assay of reduction of food intake

Compound: CCN(c1cc(N2CCCNCC2)ccc1NS(=O)(=O)c1ccccc1)S(=O)(=O)c1ccccc1.Cl [Example 29, N-{4-(1,4-diazepan-1-yl)-2-[ethyl(phenylsulfonyl)amino]phenyl}benzenesulfonamide hydrochloride]
Reduction of Food Intake (%) po administration ([1]; Dose 100 mg/Kg): 60%

melting point: 84 to 85 °C
Compound: CN1CCCN(c2ccc(S(=O)(=O)Nc3ccccc3)cc2N)CC1 (as salt: hydrochloride) [Example 92, 3-Amino-4-(4-methyl-1,4-diazepan-1-yl)-N-phenylbenzenesulfonamide]

Compound: Cl.O=S(=O)(Nc1ccc(N2CCCNCC2)cc1NS(=O)(=O)c1ccccc1)c1ccccc1 [Example 27, N-{4-(homopiperazinyl)-2-[(phenylsulfonyl)amino]phenyl}benzenesulfonamide hydrochloride]
Reduction of Food Intake (%) po administration ([1]; Dose 50 mg/Kg): 28%
